Measurements published in PubChem BioAssay (NCI).
Several values for one entry are separate records, joined by “and”; a condition that tells them apart may be missing. Equal values may be shown once.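 A five-concentration, 48-hour dose response in 96-well plates underlies each endpoint, interpolated linearly between surrounding concentrations. GI50 marks 50% less growth. TGI denotes the concentration required for complete inhibition of growth.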

Columns and labels:
Assay in all cases: growth of human tumour cells (NCI), 48 h
[1] = system: BT-549 breast
[2] = system: HCC-2998 colon
[3] = system: HT29 colon
[4] = system: NCI-H226 lung
[5] = system: RXF 393 renal
[6] = system: SK-OV-3 ovarian
[7] = system: SNB-75 CNS
[8] = system: UACC-257 melanoma
[9] = system: UO-31 renal
[10] = system: NCI-H460 lung

Structure (SMILES) | TGI [1] | TGI [2] | TGI [3] | TGI [4] | TGI [5] | TGI [6] | TGI [7] | TGI [8] | TGI [9] | GI50 [1] | GI50 [2] | GI50 [3] | GI50 [4] | GI50 [10] [µM] | TGI [10] [µM] | GI50 [5] [µM] | GI50 [6] | GI50 [7] | GI50 [8] | GI50 [9]
O=C1C[C@@H](c2ccccc2)NCCCCN(O)CCCN1 | > 100 µM | > 100 µM | > 100 µM | > 100 µM | > 100 µM | > 100 µM | > 100 µM | > 100 µM | > 100 µM | – | – | – | – | – | – | – | – | – | – | –
Cn1cc(-c2csc(-c3cn(CCN4CCOCC4)c4ccc(F)cc34)n2)c2cccnc21 | 6.21 µM | 16.4 µM | 17.7 µM | 5.51 µM | 7.23 µM | 51.6 µM | 50.5 µM | 28.9 µM | 7.88 µM | 2.18 µM | 3.42 µM | 2.85 µM | 1.86 µM | 3.39 | > 100 | 2.58 | 5.41 µM | 2.57 µM | 4.54 µM | 2.2 µM
Nc1c(C(=O)Nc2cccc3ccccc23)sc2nc3c(cc12)CCCC3 | 17.2 µM | > 100 µM | > 100 µM | > 100 µM | > 100 µM | > 100 µM | > 100 µM | > 100 µM | > 100 µM | 1.4 µM | 4.17 µM | 1.18 µM | 17.5 µM | 2.98 | > 100 | 2.77 | 1.54 µM | 1.04 µM | 40.5 µM | 3.47 µM
Clc1ccccc1-c1nc2ccccc2[nH]1 | > 100 µM | > 100 µM | > 100 µM | > 100 µM | > 100 µM | > 100 µM | > 100 µM | > 100 µM | > 100 µM | > 100 µM | > 100 µM | > 100 µM | > 100 µM | > 100 | > 100 | > 100 | > 100 µM | > 100 µM | > 100 µM | 90.8 µM
COc1cc2c(cc1OCCCCC(=O)Nc1ccc(-c3nc4ccccc4s3)cc1)N=C[C@@H]1CCCN1C2=O | 2.36 µM | 3.23 µM | 7.75 µM | 7.83 µM | 3.05 µM | 14.5 µM | – | 3.81 µM | 3.66 µM | 1.13 µM | 1.58 µM | 2.16 µM | 2.91 µM | 1.67 | 3.6 | 1.61 | 4.48 µM | – | 1.73 µM | 1.66 µM
Cc1cc[c-]cc1.Fc1c[c-]c(-c2ccccn2)c(F)c1.N#CCC[PH+](CCC#N)c1ccccc1.[Pt+2] | 31.6 µM | 10.5 µM | 17.8 µM | 7.06 µM | 4.78 µM | > 100 µM | – | 4.41 µM | 2.82 µM | 3.22 µM | 3.22 µM | 3.24 µM | 2.62 µM | 3.05 | 10.1 | 2.07 | 8.37 µM | – | 1.9 µM | 1.45 µM
O=S(=O)(NC(=S)Nc1ccccc1)c1ccc(N2N=C3c4ccccc4CC3C2c2ccc(Cl)cc2)cc1 (centres undefined) | 78.3 µM | – | > 100 µM | > 100 µM | > 100 µM | > 100 µM | > 100 µM | 70.5 µM | 38.1 µM | 33.2 µM | – | 41.6 µM | 41.4 µM | 22.2 | 60 | 43.1 | 40.7 µM | 39.7 µM | 29.5 µM | 19 µM
O=C(c1ccc(O)cc1)c1ccc(C(=O)c2ccc(O)cc2)cc1 | > 100 µM | > 100 µM | > 100 µM | > 100 µM | 98.3 µM | > 100 µM | 56.2 µM | > 100 µM | – | 94 µM | > 100 µM | > 100 µM | 33.5 µM | – | – | 26.5 | 23.3 µM | 22.5 µM | > 100 µM | –
CC(=O)OC1CCC2(C)C(CCC3C2CCC2(C)C(C4=CC(=O)OC4)CCC32)C1 (centres undefined) | 25.4 µM | > 100 µM | 75.6 µM | 65.1 µM | 28.7 µM | 49 µM | 30.2 µM | – | 49.9 µM | 4.19 µM | 23.8 µM | 13.1 µM | 22.1 µM | 0.681 | 11 | 8.73 | 19.9 µM | 11.6 µM | – | 16.1 µM
O=C(O)c1cn(C2CC2)c2cc(N3CCN(S(=O)(=O)c4ccc(Cl)c(Cl)c4)CC3)c(F)cc2c1=O | > 100 µM | > 100 µM | > 100 µM | > 100 µM | 9.51 µM | – | – | – | > 100 µM | 2.98 µM | 4.46 µM | 3.77 µM | 3.58 µM | 3.66 | > 100 | 2.98 | – | – | – | 2.58 µM
CC1=C[C@H]2c3c(c(O)c(O)c4oc5cc(O)cc(O)c5c(=O)c34)[C@H](c3cc(O)c(O)c4oc5cc(O)cc(O)c5c(=O)c34)[C@H]2C(C)(C)C1 | 8.48 µM and 6.24 µM | 3.78 µM and 10 µM | 5.74 µM and 12 µM | 5.88 µM and 5.25 µM | 4.3 µM and 4.04 µM | 5.13 µM and 8.28 µM | 10.5 µM and 12.7 µM | 9.78 µM and 21.6 µM | 3.28 µM and 8.22 µM | 0.664 µM and 1.87 µM | 1.91 µM and 2.5 µM | 1.49 µM and 2.96 µM | 2.16 µM and 1.99 µM | – | – | 1.76 | 2.05 µM and 2.27 µM | 1.51 µM and 2.08 µM | 3.02 µM and 4.3 µM | 1.38 µM and 1.55 µM
O=C1CC(c2ccccc2)Cc2nc3ccc(Cl)cc3cc21 (centres undefined) | 11.3 µM | 20.2 µM | > 100 µM | > 23.6 µM | – | > 100 µM | 70.3 µM | > 85.4 µM | > 93 µM | 0.503 µM | 2.39 µM | 0.246 µM | 0.795 µM | 0.343 | > 34.5 | – | 0.753 µM | 0.126 µM | 15.6 µM | 0.263 µM
O=C(CCCn1ccnc1[N+](=O)[O-])NCCn1cnc([N+](=O)[O-])c1 | > 100 µM | > 100 µM | > 100 µM | > 100 µM | – | > 100 µM | > 100 µM | > 100 µM | > 100 µM | – | – | – | – | – | > 100 | – | – | – | – | –
Cc1sc2nc(-c3ccccn3)c(/C=N/N=C(N)N)n2c1C | 4.39 µM | – | > 17.4 µM | 15.5 µM | 16.1 µM | 20.1 µM | 47.4 µM | 27 µM | 20.9 µM | 1.92 µM | – | 5.68 µM | 5.74 µM | 13.6 | 36.2 | 5.56 | 9.14 µM | 21.2 µM | 10.7 µM | 8.94 µM
